# Measured values as given in PubChem BioAssay (NCI).
# Where “and” joins values, the source holds several entries; their conditions need not be identical. Equal values may be shown once.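 These data come from cells grown in 96-well plates and exposed to compound for 48 hours at five concentrations. At the GI50, growth is halved. TGI is the concentration that stops growth completely.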
# Tests used:
# Test in all cases: NCI anticancer screen, dose series, 48 h
# SK-MEL-2 melanoma = test system: SK-MEL-2 melanoma
# A498 renal = test system: A498 renal
# COLO 205 colon = test system: COLO 205 colon
# HL-60(TB) leukemia = test system: HL-60(TB) leukemia
# SW-620 colon = test system: SW-620 colon
# HT29 colon = test system: HT29 colon
# A549 NSCLC = test system: A549 NSCLC
# LOX IMVI melanoma = test system: LOX IMVI melanoma
# 786-0 renal = test system: 786-0 renal
# SF-268 CNS = test system: SF-268 CNS
SMILES,GI50 (SK-MEL-2 melanoma),TGI (SK-MEL-2 melanoma),GI50 (A498 renal),TGI (A498 renal),GI50 (COLO 205 colon) [µM],TGI (COLO 205 colon),TGI (HL-60(TB) leukemia),GI50 (SW-620 colon),TGI (SW-620 colon),TGI (HT29 colon),GI50 (A549 NSCLC),TGI (A549 NSCLC),GI50 (LOX IMVI melanoma),TGI (LOX IMVI melanoma),GI50 (786-0 renal),TGI (786-0 renal),GI50 (SF-268 CNS) [µM],TGI (SF-268 CNS) [µM],GI50 (HL-60(TB) leukemia) [µM],GI50 (HT29 colon) [µM]
COc1ccc(COc2cc3oc(=O)c4cc(C(C)O)ccc4c3cc2OC)cc1 (stereo not drawn),7.69 µM,30 µM,19.2 µM,82.2 µM,> 22.7,> 100 µM,> 100 µM,> 22.4 µM,> 100 µM,> 100 µM,14 µM,> 100 µM,18.7 µM,> 100 µM,13.1 µM,56.7 µM,9.89,40.5,–,–
c1ccc(-c2csc3ncn4cnnc4c23)cc1,–,> 100 µM,–,–,–,> 100 µM,> 100 µM,–,> 100 µM,> 100 µM,–,> 100 µM,–,> 100 µM,–,> 100 µM,–,–,–,–
NC(=O)CC(N)c1nn[nH]n1 (stereo not drawn),–,> 100 µM,–,> 100 µM,–,> 100 µM,> 100 µM,–,> 100 µM,> 100 µM,–,> 100 µM,–,> 100 µM,–,> 100 µM,–,> 100,–,–
Fc1ccc2nc(-c3nc(-c4ccccc4)n4ccccc34)[nH]c2c1,2.85 µM,7.83 µM,2.08 µM,6.46 µM,3.42,13.1 µM,> 100 µM,3.97 µM,17.3 µM,9.15 µM,2.68 µM,7.98 µM,4.86 µM,20.2 µM,2.23 µM,4.23 µM,3.29,9.96,14.9,3.25
COc1ccc2c(c1)C(=O)c1c-2c(=O)n(CCCN(C)C)c2cc(OC)c(OC)cc12,> 100 µM,> 100 µM,15 µM,> 100 µM,12.6,25.3 µM,31.7 µM,1.71 µM,20.8 µM,19.1 µM,7.03 µM,22 µM,1.6 µM,15.6 µM,6.93 µM,20.5 µM,0.427,15.2,10.4,3.69
Cc1cc(O)c2c3c(ccc2c1)C(=O)c1c(O)cccc1C3=O,–,> 100 µM,–,> 100 µM,–,12.4 µM,–,–,> 100 µM,> 44.9 µM,–,> 100 µM,–,> 100 µM,–,> 100 µM,–,> 45,–,–
O=c1[nH]c2ccccc2n1C1CCN(CCCC(c2ccc(F)cc2)c2ccc(F)cc2)CC1,2.1 µM and 5.52 µM,3.96 µM and 12.3 µM,1.12 µM and 8.77 µM,2.36 µM and 22.7 µM,1.31,2.58 µM and 3.31 µM,4.4 µM and 11.9 µM,1.75 µM and 4.5 µM,3.41 µM and 13.8 µM,2.52 µM and 7.2 µM,1.48 µM and 7.32 µM,3.14 µM and 21.9 µM,1.61 µM and 2.55 µM,3.02 µM and 6.62 µM,1.75 µM and 2.79 µM,3.38 µM and 7.58 µM,–,28.9,1.82,1.12
c1ccc2c(CNCCN3CCNCC3)c3ccccc3c(CNCCN3CCNCC3)c2c1,29 µM,> 100 µM,18.3 µM,60.7 µM,13.8,> 100 µM,–,16.4 µM,49.3 µM,> 100 µM,35.1 µM,> 100 µM,12.9 µM,29.5 µM,2.26 µM,23.4 µM,12.4,33.3,–,29.2
CC(=O)N(O)c1ccc(/C=C/c2ccccc2)cc1,5.71 µM,37.9 µM,0.221 µM,0.715 µM,3.34,44 µM,> 100 µM,1.15 µM,> 100 µM,53.2 µM,1.26 µM,15.5 µM,1.48 µM,14.6 µM,0.768 µM,3.46 µM,0.817,9.69,1.07,3.39
Cc1ccc(C2=Nc3ccccc3SC(c3cccc4c3OCO4)C2)cc1 (stereo not drawn),–,44 µM,–,43.6 µM,–,35.6 µM,39 µM,–,39.8 µM,33.2 µM,–,72.4 µM,–,31.1 µM,–,39.9 µM,–,45.6,–,–
Cn1nc(-c2ccccc2)c(C(=O)/C=C/c2ccc(Cl)cc2)c(N2CCOCC2)c1=O,–,–,–,15.8 µM,–,3.79 µM,4.38 µM,–,21.5 µM,15.1 µM,–,23.1 µM,–,61.7 µM,–,12.3 µM,–,11.8,–,–
C=CC[N+]1(CC)CCN=C1CCCCCCCCCCCCCCCCC (stereo not drawn),0.538 µM,1.59 µM,1.44 µM,2.86 µM,0.651,2.29 µM,2.07 µM,0.499 µM,1.71 µM,1.24 µM,–,–,–,–,0.788 µM,2.11 µM,0.236,0.61,0.562,0.375
Cc1cc2c(c(=O)o1)C1=S(SC(c3ccccc3)=C1)S2 (stereo not drawn),–,> 100 µM,–,34 µM,–,> 100 µM,–,–,> 100 µM,> 100 µM,–,> 100 µM,–,> 100 µM,–,28.8 µM,–,> 100,–,–
O=C1C(Nc2cccc(O)c2)=C(Sc2ccccc2)C(=O)N1Cc1ccccc1,11.4 µM,26.7 µM,–,–,17,35.9 µM,–,14.2 µM,33.4 µM,29.8 µM,3.81 µM,15.9 µM,13 µM,39.4 µM,20.7 µM,39.4 µM,10.5,26.8,–,14.3
COc1cc(/C=C/C(=O)O[C@H]2[C@H](O[C@@H]3O[C@@H](C)[C@H](O)[C@@H](O)[C@H]3O)[C@@H](O)[C@H](OCCc3ccc(O)c(O)c3)O[C@@H]2COC2OCC(O)(CO)C2O)ccc1O (stereo partly drawn),> 100 µM,> 100 µM,–,–,> 100,> 100 µM,> 100 µM,20.1 µM,46 µM,–,> 100 µM,> 100 µM,21.6 µM,53.6 µM,> 100 µM,> 100 µM,49.3,> 100,> 100,–
